Source: PubChem BioAssay (NCI)
Converted amounts (≈) assume the structure as drawn.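 Briefly, cells in 96-well plates were exposed to five compound concentrations for 48 h, and endpoints were estimated by linear interpolation. GI50 marks 50% less growth. The concentration for full growth arrest is given as TGI.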 Residues, ends and D or L forms follow the SMILES beside them. *: point of attachment. Boc = CC(C)(C)OC(=O)*

Assays:
Test in all cases: NCI-60 cell line screen, 48 h; in the data active = GI50 below about 0.43 µM; inactive = the rest
A549 NSCLC = test system: A549 NSCLC
BT-549 breast = test system: BT-549 breast
CCRF-CEM leukemia = test system: CCRF-CEM leukemia
COLO 205 colon = test system: COLO 205 colon
DU-145 prostate = test system: DU-145 prostate
EKVX NSCLC = test system: EKVX NSCLC
HCC-2998 colon = test system: HCC-2998 colon
HCT-116 colon = test system: HCT-116 colon
HCT-15 colon = test system: HCT-15 colon
HL-60(TB) leukemia = test system: HL-60(TB) leukemia
HOP-92 NSCLC = test system: HOP-92 NSCLC
HS 578T breast = test system: HS 578T breast
IGROV1 ovarian = test system: IGROV1 ovarian
K-562 leukemia = test system: K-562 leukemia
KM12 colon = test system: KM12 colon
LOX IMVI melanoma = test system: LOX IMVI melanoma
M14 melanoma = test system: M14 melanoma
MALME-3M melanoma = test system: MALME-3M melanoma
MCF7 breast = test system: MCF7 breast
MDA-MB-231 breast = test system: MDA-MB-231 breast
MDA-MB-435 = test system: MDA-MB-435
MDA-N = test system: MDA-N
MOLT-4 leukemia = test system: MOLT-4 leukemia
NCI-H23 lung = test system: NCI-H23 lung
NCI-H460 lung = test system: NCI-H460 lung
NCI-H522 lung = test system: NCI-H522 lung
OVCAR-3 ovarian = test system: OVCAR-3 ovarian
OVCAR-8 ovarian = test system: OVCAR-8 ovarian
RPMI-8226 leukemia = test system: RPMI-8226 leukemia
SF-268 CNS = test system: SF-268 CNS
SF-295 CNS = test system: SF-295 CNS
SF-539 CNS = test system: SF-539 CNS
SK-MEL-2 melanoma = test system: SK-MEL-2 melanoma
SK-MEL-28 melanoma = test system: SK-MEL-28 melanoma
SK-OV-3 ovarian = test system: SK-OV-3 ovarian
SN12C renal = test system: SN12C renal
SNB-75 CNS = test system: SNB-75 CNS
SR leukemia = test system: SR leukemia
SW-620 colon = test system: SW-620 colon
TK-10 renal = test system: TK-10 renal
U251 CNS = test system: U251 CNS
UACC-257 melanoma = test system: UACC-257 melanoma
UACC-62 melanoma = test system: UACC-62 melanoma
786-0 renal = test system: 786-0 renal
A498 renal = test system: A498 renal
ACHN renal = test system: ACHN renal
CAKI-1 renal = test system: CAKI-1 renal
HOP-62 NSCLC = test system: HOP-62 NSCLC
HT29 colon = test system: HT29 colon
NCI-H226 lung = test system: NCI-H226 lung
NCI/ADR-RES ovarian = test system: NCI/ADR-RES ovarian
OVCAR-4 ovarian = test system: OVCAR-4 ovarian
OVCAR-5 ovarian = test system: OVCAR-5 ovarian
PC-3 prostate = test system: PC-3 prostate
RXF 393 renal = test system: RXF 393 renal
SK-MEL-5 melanoma = test system: SK-MEL-5 melanoma
SNB-19 CNS = test system: SNB-19 CNS
UO-31 renal = test system: UO-31 renal

COC(=O)CNC(=O)C(Cc1ccccc1)NC(=O)C(Cc1ccccc1)NC(=O)OC(C)(C)C (stereo not drawn) (Boc-Phe-Phe-Gly-OMe; configuration not given here)
12.2 µg/mL: TGI (NCI-H522 lung)
41 µg/mL: TGI (SF-539 CNS)
38.2 µg/mL: TGI (SK-MEL-28 melanoma)
42.9 µg/mL: TGI (OVCAR-3 ovarian)
49 µg/mL: TGI (RPMI-8226 leukemia)
53.3 µg/mL: TGI (HCT-116 colon)
69.2 µg/mL: TGI (BT-549 breast)
74.5 µg/mL: TGI (KM12 colon)
54.8 µg/mL: TGI (HL-60(TB) leukemia)
38.8 µg/mL: TGI (MOLT-4 leukemia)
48.9 µg/mL: TGI (CCRF-CEM leukemia)
46.4 µg/mL: TGI (SR leukemia)
55 µg/mL: TGI (MALME-3M melanoma)
28.9 µg/mL: TGI (UACC-62 melanoma)
94.7 µg/mL: TGI (U251 CNS)
50.4 µg/mL: TGI (LOX IMVI melanoma)
inactive: GI50 (A549 NSCLC) 83.3 µg/mL (≈ 172 µM) | GI50 (BT-549 breast) 27.8 µg/mL (≈ 57.5 µM) | GI50 (CCRF-CEM leukemia) 21.1 µg/mL (≈ 43.6 µM) | GI50 (COLO 205 colon) 13.5 µg/mL (≈ 27.9 µM) | GI50 (DU-145 prostate) 27.7 µg/mL (≈ 57.3 µM) | GI50 (EKVX NSCLC) 37.1 µg/mL (≈ 76.6 µM) | GI50 (HCC-2998 colon) 18.9 µg/mL (≈ 39 µM) | GI50 (HCT-116 colon) 22.5 µg/mL (≈ 46.5 µM) | GI50 (HCT-15 colon) 69.8 µg/mL (≈ 144 µM) | GI50 (HL-60(TB) leukemia) 26.5 µg/mL (≈ 54.7 µM) | GI50 (HOP-92 NSCLC) 24.9 µg/mL (≈ 51.5 µM) | GI50 (HS 578T breast) 32.8 µg/mL (≈ 67.8 µM) | GI50 (IGROV1 ovarian) 41.6 µg/mL (≈ 86 µM) | GI50 (K-562 leukemia) 20.7 µg/mL (≈ 42.8 µM) | GI50 (KM12 colon) 28 µg/mL (≈ 57.8 µM) | GI50 (LOX IMVI melanoma) 20.8 µg/mL (≈ 43 µM) | GI50 (M14 melanoma) 27.9 µg/mL (≈ 57.6 µM) | GI50 (MALME-3M melanoma) 22.3 µg/mL (≈ 46.1 µM) | GI50 (MCF7 breast) 34.8 µg/mL (≈ 72 µM) | GI50 (MDA-MB-231 breast) 48.5 µg/mL (≈ 100 µM) | GI50 (MDA-MB-435) 42.8 µg/mL (≈ 88.5 µM) | GI50 (MDA-N) 32.9 µg/mL (≈ 68.1 µM) | GI50 (MOLT-4 leukemia) 18.4 µg/mL (≈ 38.1 µM) | GI50 (NCI-H23 lung) 35.7 µg/mL (≈ 73.8 µM) | GI50 (NCI-H460 lung) 33.7 µg/mL (≈ 69.6 µM) | GI50 (NCI-H522 lung) 2.35 µg/mL (≈ 4.86 µM) | GI50 (OVCAR-3 ovarian) 20 µg/mL (≈ 41.4 µM) | GI50 (OVCAR-8 ovarian) 25.7 µg/mL (≈ 53.1 µM) | GI50 (RPMI-8226 leukemia) 20.9 µg/mL (≈ 43.2 µM) | GI50 (SF-268 CNS) 78.4 µg/mL (≈ 162 µM) | GI50 (SF-295 CNS) 51.1 µg/mL (≈ 106 µM) | GI50 (SF-539 CNS) 21.4 µg/mL (≈ 44.3 µM) | GI50 (SK-MEL-2 melanoma) 41.2 µg/mL (≈ 85.2 µM) | GI50 (SK-MEL-28 melanoma) 18.7 µg/mL (≈ 38.7 µM) | GI50 (SK-OV-3 ovarian) 59.6 µg/mL (≈ 123 µM) | GI50 (SN12C renal) 31.3 µg/mL (≈ 64.6 µM) | GI50 (SNB-75 CNS) 30.1 µg/mL (≈ 62.2 µM) | GI50 (SR leukemia) 21.7 µg/mL (≈ 44.8 µM) | GI50 (SW-620 colon) 49.1 µg/mL (≈ 102 µM) | GI50 (TK-10 renal) 37.6 µg/mL (≈ 77.8 µM) | GI50 (U251 CNS) 32.4 µg/mL (≈ 67 µM) | GI50 (UACC-257 melanoma) 32.4 µg/mL (≈ 67 µM) | GI50 (UACC-62 melanoma) 15.6 µg/mL (≈ 32.2 µM)
41.2 µg/mL: TGI (K-562 leukemia)
65.9 µg/mL: TGI (M14 melanoma)
40.2 µg/mL: TGI (HCC-2998 colon)
69.5 µg/mL: TGI (COLO 205 colon)
43.7 µg/mL: TGI (HOP-92 NSCLC)
74.2 µg/mL: TGI (OVCAR-8 ovarian)

O=c1c2cc([N+](=O)[O-])ccc2[nH]n1Cc1ccccn1
> 100 µM: TGI (786-0 renal) | TGI (A498 renal) | TGI (A549 NSCLC) | TGI (ACHN renal) | TGI (CAKI-1 renal) | TGI (CCRF-CEM leukemia) | TGI (COLO 205 colon) | TGI (DU-145 prostate) | TGI (EKVX NSCLC) | TGI (HCC-2998 colon) | TGI (HCT-116 colon) | TGI (HCT-15 colon) | TGI (HL-60(TB) leukemia) | TGI (HOP-62 NSCLC) | TGI (HOP-92 NSCLC) | TGI (HS 578T breast) | TGI (HT29 colon) | TGI (IGROV1 ovarian) | TGI (K-562 leukemia) | TGI (KM12 colon) | TGI (LOX IMVI melanoma) | TGI (M14 melanoma) | TGI (MALME-3M melanoma) | TGI (MDA-MB-231 breast) | TGI (MDA-MB-435) | TGI (MDA-N) | TGI (MOLT-4 leukemia) | TGI (NCI-H226 lung) | TGI (NCI-H23 lung) | TGI (NCI-H460 lung) | TGI (NCI-H522 lung) | TGI (NCI/ADR-RES ovarian) | TGI (OVCAR-3 ovarian) | TGI (OVCAR-4 ovarian) | TGI (OVCAR-5 ovarian) | TGI (OVCAR-8 ovarian) | TGI (PC-3 prostate) | TGI (RPMI-8226 leukemia) | TGI (RXF 393 renal) | TGI (SF-268 CNS) | TGI (SF-295 CNS) | TGI (SF-539 CNS) | TGI (SK-MEL-28 melanoma) | TGI (SK-MEL-5 melanoma) | TGI (SN12C renal) | TGI (SNB-19 CNS) | TGI (SNB-75 CNS) | TGI (SR leukemia) | TGI (SW-620 colon) | TGI (TK-10 renal) | TGI (U251 CNS) | TGI (UACC-257 melanoma) | TGI (UACC-62 melanoma) | TGI (UO-31 renal)

C/C1=C\[C@H](C)C[C@H](C)OC(=O)C[C@H](c2ccc(O)cc2)NC(=O)[C@H](Cc2ccc(O)c(I)c2)N(C)C(=O)[C@H](C)NC(=O)[C@@H](C)C1
8.77 µM: TGI (UACC-62 melanoma)
18.8 µM: TGI (NCI/ADR-RES ovarian)
6.84 µM: TGI (EKVX NSCLC)
22.9 µM: TGI (SN12C renal)
18.6 µM: TGI (HCT-116 colon)
16.9 µM: TGI (SK-OV-3 ovarian)
11.1 µM: TGI (SK-MEL-5 melanoma)
0.433 µM: TGI (MDA-MB-231 breast)
6.78 µM: TGI (SK-MEL-2 melanoma)
5.18 µM: TGI (MDA-MB-435)
0.185 µM: TGI (UO-31 renal)
> 25 µM: TGI (786-0 renal) | TGI (A549 NSCLC) | TGI (ACHN renal) | TGI (CCRF-CEM leukemia) | TGI (COLO 205 colon) | TGI (DU-145 prostate) | TGI (HCT-15 colon) | TGI (HOP-62 NSCLC) | TGI (HT29 colon) | TGI (IGROV1 ovarian) | TGI (K-562 leukemia) | TGI (KM12 colon) | TGI (LOX IMVI melanoma) | TGI (M14 melanoma) | TGI (MCF7 breast) | TGI (MOLT-4 leukemia) | TGI (NCI-H226 lung) | TGI (NCI-H23 lung) | TGI (NCI-H522 lung) | TGI (OVCAR-3 ovarian) | TGI (OVCAR-5 ovarian) | TGI (PC-3 prostate) | TGI (RPMI-8226 leukemia) | TGI (SF-295 CNS) | TGI (SK-MEL-28 melanoma) | TGI (SNB-19 CNS) | TGI (SR leukemia) | TGI (SW-620 colon) | TGI (TK-10 renal)
13.8 µM: TGI (MDA-N)
0.118 µM: TGI (HOP-92 NSCLC)
0.245 µM: TGI (HS 578T breast)
10.3 µM: TGI (SNB-75 CNS)
3.45 µM: TGI (OVCAR-8 ovarian)
3.06 µM: TGI (MALME-3M melanoma)
6.9 µM: TGI (U251 CNS)
0.0186 µM: TGI (OVCAR-4 ovarian)
0.0948 µM: TGI (A498 renal)
0.153 µM: TGI (SF-268 CNS)
